Measurements published in publication PMC5064002, “Sintokamide A Is a Novel Antagonist of Androgen Receptor That Uniquely Binds Activation Function-1 in Its Amino-terminal Domain” (The Journal of Biological Chemistry, 2016).

Columns and labels:
Type in all cases: cell-based
AR NTD = target: T1, AR NTD (Homo sapiens, UniProt P10275); assay: Transactivation of AR NTD (AR-(1–558)-Gal4 DBD, 5xGal4UAS-TATA-luciferase) in LNCaP cells; conditions: for IL-6-induced transactivation of AR NTD: 20 μM SINT1 or 25 μM EPI-002, 50 ng/ml IL-6 24 h; for forskolin-induced transactivation of AR NTD: 20 μM SINT1 or 25 μM EPI-002, 50 μM forskolin 24 h
T1 construct: expression vector for AR NTD encoding amino acids 1–558 fused to the Gal4 DBD; expressed in transfected cells; host or cells: LNCaP
T1 sequence (P10275 1-558): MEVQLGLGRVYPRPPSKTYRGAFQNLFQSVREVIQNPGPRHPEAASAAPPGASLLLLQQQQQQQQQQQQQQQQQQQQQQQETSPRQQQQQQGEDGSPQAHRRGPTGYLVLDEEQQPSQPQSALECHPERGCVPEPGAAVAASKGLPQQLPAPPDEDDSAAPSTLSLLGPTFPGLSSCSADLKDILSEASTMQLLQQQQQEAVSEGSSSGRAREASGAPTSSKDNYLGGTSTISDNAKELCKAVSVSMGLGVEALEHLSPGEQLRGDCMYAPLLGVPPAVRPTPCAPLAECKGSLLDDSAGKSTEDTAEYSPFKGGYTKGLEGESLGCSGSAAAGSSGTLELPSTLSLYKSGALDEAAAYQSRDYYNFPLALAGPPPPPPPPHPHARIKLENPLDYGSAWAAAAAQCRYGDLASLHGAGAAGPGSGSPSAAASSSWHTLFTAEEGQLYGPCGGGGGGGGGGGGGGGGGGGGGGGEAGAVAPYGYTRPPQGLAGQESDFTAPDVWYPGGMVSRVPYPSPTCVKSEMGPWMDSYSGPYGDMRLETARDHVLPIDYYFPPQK
Procedure: LNCaP cells were co-transfected with 5xGal4UAS-TATA-luciferase and AR-(1–558)-Gal4 DBD prior to pretreatment with 20 μM SINT1 or 25 μM EPI-002, which binds to the AR NTD to block AR transcriptional activity. NTD activity was induced by incubation with 50 μM forskolin or 50 ng/ml IL-6 for an additional 24 h ([7], [8]).
To test whether SINT1 can inhibit transactivation of AR NTD, LNCaP cells were co-transfected with an expression vector for AR NTD encoding amino acids 1–558 fused to the Gal4 DBD and a reporter construct with Gal4 DBD-binding sites. Transactivation of AR NTD is induced by forskolin or IL-6 ([8], [14]).

AR-V567es = target: T2, AR-V567es (Homo sapiens, UniProt P10275); assay: Transcriptional activity of AR splice variant, PB-luciferase in COS-1 cells; conditions: for AR-V567es transcriptional activities (PB-luciferase): COS-1, 20 μM SINT1, 25 μM EPI-002
T2 construct: expressed in transfected cells; host or cells: COS-1
T2 sequence (P10275 with tags, fused parts or gaps limits assumed): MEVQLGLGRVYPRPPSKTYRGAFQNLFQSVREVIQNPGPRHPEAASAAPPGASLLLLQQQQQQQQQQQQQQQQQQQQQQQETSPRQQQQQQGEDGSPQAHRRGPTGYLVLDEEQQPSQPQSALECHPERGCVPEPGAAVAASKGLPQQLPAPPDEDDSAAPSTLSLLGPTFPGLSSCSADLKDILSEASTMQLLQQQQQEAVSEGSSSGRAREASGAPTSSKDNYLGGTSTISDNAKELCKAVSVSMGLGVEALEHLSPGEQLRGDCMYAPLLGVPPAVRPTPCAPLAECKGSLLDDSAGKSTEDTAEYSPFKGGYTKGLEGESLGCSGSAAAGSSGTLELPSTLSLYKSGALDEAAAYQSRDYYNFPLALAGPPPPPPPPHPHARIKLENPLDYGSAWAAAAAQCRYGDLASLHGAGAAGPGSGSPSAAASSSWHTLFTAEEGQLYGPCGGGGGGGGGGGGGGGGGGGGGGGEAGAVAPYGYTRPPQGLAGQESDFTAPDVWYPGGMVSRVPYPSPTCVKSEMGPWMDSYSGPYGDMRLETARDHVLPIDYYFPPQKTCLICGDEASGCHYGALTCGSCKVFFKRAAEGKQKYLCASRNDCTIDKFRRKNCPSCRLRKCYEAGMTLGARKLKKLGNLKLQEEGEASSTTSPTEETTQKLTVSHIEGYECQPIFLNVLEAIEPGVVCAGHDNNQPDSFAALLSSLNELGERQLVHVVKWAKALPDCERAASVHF
Procedure: […]. Levels of expression of AR variant were determined by Western blotting using 10 μg of total protein extracted from same plates (3 wells per condition) using AR-N20 antibody (1:1000) and goat anti-rabbit HRP-conjugated secondary antibody (Santa Cruz Biotechnology; 1:10,000).

LNCaP cells = assay: Cell proliferation (BrdU incorporation), LNCaP; conditions: 0.1 nM R1881, 72 h
Procedure: Cells were pulse-labeled with 10 μM BrdU for 2 h. Cells were fixed, and BrdU-labeled cells were identified with anti-BrdU-peroxidase (Roche Applied Science). BrdU incorporation was measured at 570 nm using a VersaMax ELISA microplate reader (Molecular Devices). At least three independent experiments with six technical replicates were analyzed, and average values are indicated.

Row | SMILES | IL-6-induced transactivation of AR NTD (AR NTD) | forskolin-induced transactivation of AR NTD (AR NTD) | AR-V567es transcriptional activities (PB-luciferase) (AR-V567es) | levels of AR-V567es protein (AR-V567es; COS-1, Western blot) | androgen-induced proliferation of LNCaP cells (LNCaP cells)
1 | CCC(=O)NC(CC(C)C(Cl)(Cl)Cl)C(=O)N1C(=O)C=C(OC)C1CC(C)C(Cl)Cl (stereo not drawn) [SINT1, Sintokamide A] | no significant effect | significantly inhibited | significantly inhibited | not decreased | inhibited
2 | CC(C)(c1ccc(OC[C@H](O)CO)cc1)c1ccc(OC[C@H](O)CCl)cc1 [EPI-002, reference compound] | potent inhibitor | significantly inhibited | significantly inhibited | – | inhibited
